# Paper PMC2654417 (Combinatorial chemistry & high throughput screening, 2008)
# Like-named read-outs stand apart in the source and are kept apart here.
# Target: T1, glucocorticoid receptor (GR) (Homo sapiens, UniProt P04150)
# T1 sequence (P04150 1-777): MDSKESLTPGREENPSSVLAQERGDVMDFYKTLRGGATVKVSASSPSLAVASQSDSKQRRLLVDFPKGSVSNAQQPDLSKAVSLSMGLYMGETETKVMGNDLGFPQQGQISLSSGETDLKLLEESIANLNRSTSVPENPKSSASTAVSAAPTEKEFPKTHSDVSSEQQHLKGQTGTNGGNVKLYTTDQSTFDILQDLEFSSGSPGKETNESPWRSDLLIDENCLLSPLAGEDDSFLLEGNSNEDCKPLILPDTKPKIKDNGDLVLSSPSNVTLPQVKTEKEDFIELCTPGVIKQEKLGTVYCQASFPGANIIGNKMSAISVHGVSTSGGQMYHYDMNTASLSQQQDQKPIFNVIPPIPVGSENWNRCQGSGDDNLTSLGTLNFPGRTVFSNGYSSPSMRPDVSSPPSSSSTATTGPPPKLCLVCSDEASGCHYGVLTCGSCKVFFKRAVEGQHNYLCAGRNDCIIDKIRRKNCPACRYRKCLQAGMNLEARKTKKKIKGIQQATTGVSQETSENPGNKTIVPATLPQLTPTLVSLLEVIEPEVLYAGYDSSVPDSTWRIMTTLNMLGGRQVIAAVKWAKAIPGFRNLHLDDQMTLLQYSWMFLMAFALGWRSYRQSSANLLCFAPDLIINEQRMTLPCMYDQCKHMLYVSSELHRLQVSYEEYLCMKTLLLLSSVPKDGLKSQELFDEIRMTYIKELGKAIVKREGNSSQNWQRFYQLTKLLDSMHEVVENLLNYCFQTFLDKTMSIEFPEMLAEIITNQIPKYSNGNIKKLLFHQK
# Assay: GR-EFC nuclear translocation assay
# Assay type: cell-based
# Settings: for qHTS Hill Slope: Hill slope of the qHTS curve fit; for log qEC50: log10 of qEC50 in M, printed as negative values; for qHTS Max Activity: maximal activity of the qHTS curve, inactive threshold […] (3σ)
# [1] = class 4 values are fit defaults
# [2] = read-out: qEC50, qHTS curve fit, class 4 values are fit defaults
qHTS Hill Slope,qHTS Max Activity,EC50 [2] [µM],Structure (SMILES),further results
0.63,84.0,0.00821,CC(=O)[C@@]1(O)CC[C@H]2[C@@H]3C[C@H](C)C4=CC(=O)C=C[C@]4(C)[C@@]3(F)[C@@H](O)C[C@@]21C [NCGC00016442-01],log qEC50 [1]: −8.086
,,,C[C@]12CC[C@@H]3C(=CCc4cc(O)ccc43)[C@@H]1CCC2=O [NCGC00016451-01],"qHTS Curve Class: 4 (inactive, where activity was below 28.6% (3σ for the present assay)); EC50 (read-out: qEC50): > 9 µM"
0.59,41.2,0.434,C[C@@]12CCC(=O)C=C1CC[C@H]1[C@H]3CC[C@](O)(C(=O)CO)[C@]3(C)CC[C@@H]12 [NCGC00015886-01],log qEC50 [1]: −6.363
1.35,37.8,0.0165,C[C@@]12C[C@@H](O)[C@H]3[C@@H](CCC4=CC(=O)CC[C@]43C)[C@H]1CC[C@H]2C(=O)CO [NCGC00016214-01],log qEC50 [1]: −7.782
1.50,115.3,,CCC(=O)O[C@]1(C(=O)SCF)[C@H](C)C[C@H]2[C@@H]3C[C@H](F)C4=CC(=O)C=C[C@]4(C)[C@@]3(F)[C@@H](O)C[C@@]21C [NCGC00016943-01],
,,> 9,C[C@]12CC[C@H]3[C@@H](CCC4=CC(=O)CC[C@@]43C)[C@@H]1CC[C@@H]2C(=O)CO [NCGC00016292-01],
0.55,123.7,,C[C@@]12CCC(=O)C=C1CC[C@@H]1[C@@H]2[C@H](O)C[C@]2(C)[C@@H]1CC[C@]2(O)C(=O)CO [NCGC00015507-01],
,,,C=C(C)[C@H]1CC[C@]2(CO)CC[C@]3(C)[C@@H](CC[C@H]4[C@@]5(C)CC[C@@H](O)C(C)(C)[C@@H]5CC[C@@]43C)[C@H]12 [NCGC00016450-01],"qHTS Curve Class: 4 (inactive, where activity was below 28.6% (3σ for the present assay)); EC50 (read-out: qEC50): > 9 µM"
,,,C[C@H]1[C@H](C)CC[C@@]2(C(=O)O)CC[C@]3(C)C(=CC[C@H]4[C@@]5(C)C[C@@H](O)[C@H](O)[C@@](C)(CO)[C@@H]5CC[C@@]43C)[C@@H]12 [NCGC00017359-01],"qHTS Curve Class: 4 (inactive, where activity was below 28.6% (3σ for the present assay)); EC50 (read-out: qEC50): > 9 µM"
1.03,113.5,0.273,C[C@]12C=CC(=O)C=C1CC[C@@H]1[C@H]3C[C@@H](O)[C@](O)(C(=O)CO)[C@]3(C)C[C@H](O)[C@]12F [NCGC00016037-01],log qEC50 [1]: −6.563
,,,CC1(C)CC[C@]2(C(=O)O)CC[C@]3(C)C(=CC[C@@H]4[C@@]5(C)CC[C@H](O)C(C)(C)[C@@H]5CC[C@@]43C)[C@@H]2C1 [NCGC00017222-01],"qHTS Curve Class: 4 (inactive, where activity was below 28.6% (3σ for the present assay)); EC50 (read-out: qEC50): > 9 µM"
,,> 9,C[C@@H]1[C@H]2CC[C@@H]3[C@@H]4CC=C5C[C@@H](N(C)C)CC[C@]5(C)[C@@H]4CC[C@@]32CN1C [NCGC00016502-01],
,,,C#C[C@@]1(OC(C)=O)CC[C@@H]2[C@@H]3CCC4=C[C@@H](OC(C)=O)CC[C@H]4[C@H]3CC[C@]21C [NCGC00016417-01],"qHTS Curve Class: 4 (inactive, where activity was below 28.6% (3σ for the present assay)); EC50 (read-out: qEC50): > 9 µM"
,,,"CC(=O)C1(O)CCC2C3CCC4=CC(=O)CCC4(C)C3CCC21C (stereo not drawn) [17α-hydroxyprogesterone, reference compound]",EC50: 2.87 µM
,,,C[C@@H]1[C@H](C)CC[C@@]2(C(=O)O)CC[C@]3(C)C(=CC[C@H]4[C@@]5(C)CC[C@@H](O)C(C)(C)[C@@H]5CC[C@@]43C)[C@@H]12 [NCGC00016318-01],"qHTS Curve Class: 4 (inactive, where activity was below 28.6% (3σ for the present assay)); EC50 (read-out: qEC50): > 9 µM"
,,,C#C[C@@]1(O)CC[C@@H]2[C@@H]3CCC4=CC(=O)CC[C@@H]4[C@H]3CC[C@]21CC [NCGC00016540-01],"qHTS Curve Class: 4 (inactive, where activity was below 28.6% (3σ for the present assay)); EC50 (read-out: qEC50): > 9 µM"
,,> 9,CC(=O)[C@@H]1CC[C@@H]2[C@@H]3CC=C4C[C@H](OS(=O)(=O)O)CC[C@@]4(C)[C@H]3CC[C@]21C [NCGC00016184-01],
,,,C[C@H]1[C@H](C)CC[C@@]2(C(=O)O)CC[C@]3(C)C(=CC[C@@H]4[C@@]5(C)CC[C@H](O)C(C)(C)[C@@H]5CC[C@@]43C)[C@@H]12 [NCGC00017223-01],"qHTS Curve Class: 4 (inactive, where activity was below 28.6% (3σ for the present assay)); EC50 (read-out: qEC50): > 9 µM"
,,> 9,C[C@]12CC[C@H]3c4ccc(OC[C@H]5CO5)cc4CC[C@H]3[C@H]1CC[C@@H]2O [NCGC00017797-01],
,,,C[C@]12Cc3cn4c(nc3C=C1CC[C@H]1[C@@H]2CC[C@@]2(C)[C@H]1CC[C@@]2(O)C#N)nc1ccccc14 [NCGC00016090-01],"qHTS Curve Class: 4 (inactive, where activity was below 28.6% (3σ for the present assay)); EC50 (read-out: qEC50): > 9 µM"
0.57,97.1,0.00485,CC1(C)O[C@@H]2C[C@H]3[C@@H]4C[C@H](F)C5=CC(=O)C=C[C@]5(C)[C@H]4[C@@H](O)C[C@]3(C)[C@]2(C(=O)CO)O1 [NCGC00016983-01],log qEC50 [1]: −8.315
,,> 9,C[C@@]12CC[C@@H]3c4ccc(O)cc4C[C@H](CCCCCCCCC[S+]([O-])CCCC(F)(F)C(F)(F)F)[C@H]3[C@@H]1CC[C@@H]2O (stereo partly drawn) [NCGC00024964-01],
0.62,100.0,1.12,C[C@@]12CCC(=O)C=C1CC[C@@H]1[C@@H]2[C@H](O)C[C@]2(C)[C@@H]1CC[C@]2(O)C(=O)COC(=O)CCC(=O)[O-].[Na+] [NCGC00016153-01],log qEC50 [1]: −5.952
,,,C#C[C@]1(O)CC[C@@H]2[C@H]3CCC4=Cc5oncc5C[C@]4(C)[C@@H]3CC[C@@]21C [NCGC00016726-01],"qHTS Curve Class: 4 (inactive, where activity was below 28.6% (3σ for the present assay)); EC50 (read-out: qEC50): > 9 µM"
0.52,77.5,0.00311,CCC(=O)[C@@]1(C)[C@H](C)C[C@H]2[C@@H]3CCC4=CC(=O)C=C[C@]4(C)[C@H]3[C@@H](O)C[C@@]21C [NCGC00016856-01],log qEC50 [1]: −8.507
0.96,30.2,0.00944,CCOC(=O)O[C@]1(C(=O)COC(=O)CC)CC[C@H]2[C@@H]3CCC4=CC(=O)C=C[C@]4(C)[C@H]3[C@@H](O)C[C@@]21C [NCGC00016926-01],log qEC50 [1]: −8.025
0.13,100.0,4.16,CC(=O)[C@H]1CC[C@H]2[C@@H]3C[C@H](C)C4=CC(=O)CC[C@]4(C)[C@H]3[C@@H](O)C[C@]12C [NCGC00016616-01],log qEC50 [1]: −5.381
0.44,80.7,0.0775,CC(=O)OCC(=O)[C@@]1(OC(C)=O)[C@H](C)C[C@H]2[C@@H]3C[C@H](F)C4=CC(=O)C=C[C@@]4(C)[C@]3(F)[C@H](O)C[C@@]21C [NCGC00016822-01],log qEC50 [1]: −7.111

Structure (SMILES),qHTS Hill Slope,qHTS Max Activity,EC50 [2] [µM],further results
C[C@@]12CC[C@H]3[C@@H](CC=C4C[C@H](OS(=O)(=O)O)CC[C@]43C)[C@H]1CCC2=O [NCGC00016143-01],,,> 9,
C[C@]12CC[C@H](O)CC1=CC[C@@H]1[C@H]2CC[C@]2(C)C(=O)CC[C@H]12 [NCGC00015341-01],,,> 9,
C[C@]12CC[C@H](O)C[C@@H]1CC[C@H]1[C@H]2CC[C@]2(C)[C@H](C(=O)CO)CC[C@@H]12 [NCGC00015805-01],,,> 9,
CC(=O)O[C@H]1C[C@H]2CC[C@@H]3[C@@H](CC[C@]4(C)[C@H](OC(C)=O)[C@H]([N+]5(C)CCCCC5)C[C@@H]34)[C@]2(C)C[C@H]1[N+]1(C)CCCCC1 [NCGC00016716-01],,,> 9,
C[C@H]1CC[C@@]2(NC1)O[C@@H]1C[C@H]3[C@@H]4CC=C5C[C@@H](O)CC[C@]5(C)[C@@H]4CC[C@]3(C)[C@@H]1[C@@H]2C [NCGC00016381-01],,,> 9,
CC(=O)O[C@@H]1[C@H]([N+]2(C)CCCCC2)C[C@@H]2[C@@H]3CC[C@@H]4C[C@@H](OC(C)=O)[C@H]([N+]5(C)CCCCC5)C[C@@]4(C)[C@H]3CC[C@]21C [NCGC00015804-01],,,> 9,
CC(=O)O[C@H]1C[C@H]2CC[C@@H]3[C@H]4C[C@@H]([N+]5(C)CCCCC5)[C@@H](OC(C)=O)[C@]4(C)CC[C@@H]3[C@@]2(C)C[C@@H]1[N+]1(C)CCCCC1 [NCGC00024736-01],,,> 9,
CC(=O)O[C@H]1CC[C@@]2(C)C(=CC[C@@H]3[C@@H]2CC[C@]2(C)C(=O)CC[C@@H]32)C1 [NCGC00016544-01],,,> 9,
CC(=O)[C@@H]1CC[C@H]2[C@H]3CC[C@H]4C[C@@H](O)CC[C@]4(C)[C@@H]3CC[C@]12C [NCGC00015853-01],,,> 9,
C[C@@]12CC[C@H](O)C[C@@H]1CC[C@H]1[C@H]2C[C@@H](O)[C@]2(C)[C@@H](C3=CC(=O)OC3)CC[C@@]12O [NCGC00017309-01],,,> 9,
C[C@@]12CC[C@H](O)C[C@@H]1CC[C@H]1[C@H]2CC[C@@]2(C)[C@@H](C3=CC(=O)OC3)CC[C@]12O [NCGC00016406-01],,,> 9,
